Results on 7 compounds are retold here after US5952298A, “Cryptophycins” (priority 1995, dated 1999).

Where two headings read alike, the source gives them in different places.

Data set [1] concerns A-10 rat aortic smooth muscle cells. Format: cell-based. On the procedure:
A-10 cells were grown to near-confluency on glass coverslips in BME/10% FBS. Compounds in PBS were added to the indicated final concentrations and cells were incubated for an additional 24 hours. For the staining of microtubules and intermediate filaments, the cells were fixed with cold methanol and incubated with PBS containing 10% calf serum to block nonspecific binding sites. Cells were then incubated at 37° C. for 60 min with either monoclonal anti-β-tubulin or with monoclonal anti-vimentin at dilutions recommended by the manufacturer. Bound primary antibodies were subsequently visualized by a 45-minute incubation with fluorescein-conjugated rabbit antimouse IgG. The coverslips were mounted on microscope slides and the fluorescence patterns were examined and photographed using a Zeiss Photomicroscope Ill equipped with epifluorescence optics for fluorescein. […] PBS containing 100 nM TRITC-phalloidin was then added and the mixture was allowed to incubate for 45 min at 37° C. The cells were washed rapidly three times with PBS before the coverslips were mounted and immediately photographed as described above.
After 24 hours, microtubules and vimentin intermediate filaments were visualized by indirect immunofluorescence and microfilaments were stained using TRITC-phalloidin. The morphological effects of each drug were examined. […] Vimentin intermediate filaments were also evenly distributed throughout the cytoplasm, while bundles of microfilaments were concentrated along the major axis of the cell.

Data set [2] concerns murine leukemia (L1210 or P388), murine solid tumor, human solid tumor and low malignancy fibroblast (LML) cells.
In data set [3] the test system is pancreatic ductal adenocarcinoma #03 (Panc 03, P03). The conditions noted are these: SC P03.
For data set [4], the system named is murine and human tumors implanted in mice. Conditions: for cause of lethal toxicity observed during testing: mice; for tumor burden T/C (mean tumor burden in treated animals/mean tumor burden untreated animals): text summary over the tumors named in the sentence.
Protocol: (§1) Gross log kill is defmed as T-C/3.2 Td where T is the median time in days for the tumors of the treated group to reach 750 mg, C is the median time in days for the tumors of the control group to reach 750 mg, and Td is the tumor volume doubling time. […] An activity rating of +++ to ++++, which is indicative of clinical activity, is needed to effect partial or complete regression of 100-300 mg size masses of most transplanted solid tumors of mice.
In data set [5] the test system is KB (human nasopharyngeal carcinoma). Put plainly: Cytotoxicity against KB cell line. Format: cell-based.
In data set [6] the test system is LoVo (human colon carcinoma). Briefly: Cytotoxicity against LoVo cell line. It counts as cell-based.
The subject of data set [7] is SKOV3 (human ovarian carcinoma). Put plainly: Cytotoxicity against SKOV3 cell line (Table 2). It counts as cell-based.
Data set [8] has as its system colon adenocarcinoma #38 (Colon 38, C38).
Another data set concerns H125 Human Adenosq-lung. The conditions noted are these: Exp 1823; SC H125 Human Adenosq-lung; 8 IV inj.; 14.4 mg/kg total dose.
The next data set has as its system strains of Cryptococcus. The conditions noted are these: found by researchers at Merck; cited from earlier work.
Another data set has as its system MX-1 Human Breast. Briefly: In vivo activity, SC MX-1 tumor. Conditions: Exp 1806; SC MX-1 Human Breast; 8 IV inj.; 12 mg/kg total dose.
A further data set concerns M17/0 (Adr. Sens.). Briefly: In vivo activity, SC M17/0 tumor. The conditions noted are these: Exp 1833; SC M17/0 (Adr. Sens.); 5 IV inj.; 5.4 mg/kg total dose.
In the next data set the test system is LNCaP Human Prostate. Briefly: In vivo activity, SC LNCaP tumor. The conditions noted are these: Exp 1841, 6 IV inj., 6.5 mg/kg total dose.
The subject of another data set is Human Sm Cell L. DMS273. Put plainly: In vivo activity, SC DMS273 tumor. Conditions: Exp 1596; SC Human Sm Cell L. DMS273 SCID; 6 IV inj.; 7.3 mg/kg total dose.
Data set [9] relates to colon adenocarcinoma #51 (Colon 51). Put plainly: In vivo activity, SC Colon 51 tumor.
For data set [10], the system named is Mam 16/C (taxol-sensitive mammary #16/C). Put plainly: In vivo activity, SC Mam 16/C tumor.
The subject of data set [11] is Mam 16/Taxol (taxol-resistant mammary #16/C/RP). Briefly: In vivo activity, SC Mam 16/Taxol tumor. The conditions noted are these: Exp 1733, 5 IV inj., 16.5 mg/kg total dose.
Protocol: as §1
Data set [12] has as its system tumor (leukemia) and normal cell (CFUGM) lines. Briefly: Valeriote assay. It counts as cell-based. The conditions noted are these: 5 μg/disk.
Protocol: ^b N = nonselective towards tumor (leukemia) and normal cell (CFUGM)
LL = lymphocytic leukemia selective (ZL1210 - ZCFUM ≥ 25
ML = acute myelogenous leukemia (AML) selective (ZAML - ZCFUGM
The mark [13] stands for this setting: Exp 1843, 7 IV inj., 23 mg/kg TD.
[14] abbreviates: Exp 1560, SC Colon 38, 8 IV inj., 10.3 mg/kg total dose.
[15] abbreviates: Exp 1636, 7 IV inj., 28.1 mg/kg total dose.
Where [16] appears, read: Exp 1720, 5 IV inj., 13.2 mg/kg total dose.
Where [17] appears, read: Exp 1843, 4 IV inj., 28/5 mg/kg TD.
The mark [18] stands for this setting: Exp 1769, SC C38, 15 IV inj., 45 mg/kg TD.
[19] abbreviates: Exp 1887B, SC C38, 6 IV inj., 30 mg/kg TD.
The mark [20] stands for this setting: Exp 1825, 11 IV inj., 106 mg/kg TD.
Where [21] appears, read: Exp 1900, 9 IV inj., 67.5 mg/kg TD.
Where [22] appears, read: Exp 1885, 7 IV inj., 21.3 mg/kg TD.

For orientation: T/C means the result in the treated group divided by that in the control group, in per cent.

Protocol for H125 Human Adenosq-lung: as §1
Protocol for Human Sm Cell L. DMS273: as §1
Protocol for LNCaP Human Prostate: Gross log kill is defmed as T-C/3.2 Td where T is the median time in days for the tumors of the treated group to reach 750 mg, C is the median time in days for the tumors of the control group to reach 750 mg, and Td is the tumor volume doubling time.
Protocol for M17/0 (Adr. Sens.): as §1
Protocol for MX-1 Human Breast: as §1

On to `CC(=O)O[C@H]1C(=O)[C@@]2(C)[C@H]([C@H](OC(=O)c3ccccc3)[C@]3(O)C[C@H](OC(=O)[C@H](O)[C@@H](NC(=O)c4ccccc4)c4ccccc4)C(C)=C1C3(C)C)[C@]1(OC(C)=O)CO[C@@H]1C[C@@H]2O` [taxol, reference compound], for which the “microtubule organization in taxol-treated cells” value in [1] (10 μM taxol) is reported as “extensively bundled”. Moreover, in [2] (0.2 μg/disk), the “Differential in Zone Units, Corbett Assay” value (“Differential … Corbett Assay” below) is no less than 400 zone units and the “Type of Cytotoxicity, Corbett Assay” value is “M/H/T”.

With `C=C1[C@@H](C)[C@H]2[C@H](Cc3ccccc3)NC(=O)[C@]23OC(=O)/C=C/[C@H](O)CCC[C@@H](C)C/C=C/[C@H]3[C@@H]1O` [Cytochalasin B, cytochalasin B], the effect on microfilaments entry in data set [1] (2 μM cytochalasin B, 24 hours) is recorded as “complete depolymerization of microfilaments”. In [1] (24 hours, 2 μM cytochalasin B, 100 nM vinblastine or 10 nM cryptophycin compounds), the effect on microtubules result is “did not affect the distribution of either microtubules or intermediate filaments”.

Consider `COc1ccc(CC2NC(=O)CCCC(C(C)C3OC3c3ccccc3)OC(=O)C(CC(C)C)OC(=O)C(C)CNC2=O)cc1Cl` (stereo not drawn) [Cryptophycin 35], for which, in [3] (setting [13]), the “% Body Wt. Loss at Nadir” value was -2%, the Cures is 0/5, the “Log Kill” value is listed as 1.3 and the T/C was 11%. In addition, the “in vivo activity (in words)” value in data set [4] was “Good in vivo activity”.

For `COc1ccc(C[C@H]2NC(=O)/C=C/C[C@@H]([C@H](C)[C@H]3O[C@@H]3c3ccccc3)OC(=O)[C@H](CC(C)C)OC(=O)[C@H](C)CNC2=O)cc1Cl` [Cryptophycin 1], the “KB IC50” value is 0.005 ng/mL in data set [5] (Table 1) and 0.0025 ng/mL in [5] (Table 2). The “LoVo IC50” value in data set [6] (Table 1) is recorded as 0.003 ng/mL; in data set [6] (Table 2) it was 0.001 ng/mL. For the same compound, the “SKOV3 IC50” value in data set [7] was 0.026 ng/mL. The “Differential … Corbett Assay” value in data set [2] (12.5 μg/disk) is recorded as greater than 400 zone units. Also, the “Type of Cytotoxicity, Corbett Assay” value in data set [2] (12.5 μg/disk) is “E/T”. Moreover, the “% Body Wt. Loss at Nadir” value in data set [8] (setting [14]) was “Gain”; with H125 Human Adenosq-lung, -15%; in the data set with MX-1 Human Breast it was -3%; in the data set with M17/0 (Adr. Sens.), -10%; in the data set on LNCaP Human Prostate, -6%; in the data set with Human Sm Cell L. DMS273, 0%. The “% Body Wt. Loss at Nadir” value in [9] (setting [15]) was -11%; in data set [10] (setting [16]) it was -1%; in [11], 0%. The Cures (in data set [8] (setting [14]); in the data set on H125 Human Adenosq-lung; in the data set on MX-1 Human Breast; in the data set on M17/0 (Adr. Sens.); in the data set with LNCaP Human Prostate; with Human Sm Cell L. DMS273) was 0/5 each time. In addition, the Cures in [9] (setting [15]) is on record as 0/5; in data set [10] (setting [16]) it was 0/5; in [11], 0/4. For the same compound, the “Log Kill” value in [8] (setting [14]) is recorded as 1.5; in the data set on H125 Human Adenosq-lung it was 1.1; in the data set on MX-1 Human Breast, 2.0; in the data set on M17/0 (Adr. Sens.) it was less than 1; in the data set with LNCaP Human Prostate it was less than 1; in the data set on Human Sm Cell L. DMS273, less than 1. For the same compound, the “Log Kill” value in [9] (setting [15]) was found to be 1.3; in data set [10] (setting [16]), 1.4; in data set [11], 1.8. Also, the T/C was found to be 6% in data set [8] (setting [14]); 9% with H125 Human Adenosq-lung; 3% in the data set with MX-1 Human Breast; 23% in the data set on M17/0 (Adr. Sens.); 26% in the data set on LNCaP Human Prostate; 27% in the data set with Human Sm Cell L. DMS273. The T/C in [9] (setting [15]) is on record as 7%; in data set [10] (setting [16]), 5%; in data set [11], 2%. In the data set on H125 Human Adenosq-lung, the “dead (animals)” value is listed as 1/5. Besides, the “in vivo activity (in words)” value in data set [4] is “active against a broad spectrum of murine and human tumors implanted in mice”. In addition, the “cause of lethal toxicity observed during testing” value in [4] was “leucopenia”. The “tumor burden T/C (mean tumor burden in treated animals/mean tumor burden untreated animals)” value in data set [4] is “less than 10%”. Moreover, the antifungal activity entry with strains of Cryptococcus is “very active against strains of Cryptococcus”.

On to `COc1cc([C@@H]2c3cc4c(cc3[C@@H](O[C@@H]3O[C@@H]5CO[C@@H](C)O[C@H]5[C@H](O)[C@H]3O)[C@H]3COC(=O)[C@H]23)OCO4)cc(OC)c1O` [VP-16, etoposide, reference compound], for which, in data set [12], the “Differential in Zone Units, Valeriote Assay” value was determined as 260 zone units. The “Differential … Corbett Assay” value in data set [2] (5 μg/disk) is 350 zone units.

In the case of `COc1ccc(C[C@H]2NC(=O)/C=C/C[C@@H]([C@H](C)/C=C/c3ccccc3)OC(=O)[C@H](CC(C)C)OC(=O)[C@H](C)CNC2=O)cc1Cl` [Cryptophycin 3], the “KB IC50” value in data set [5] (Table 1) was 0.3 ng/mL. The “LoVo IC50” value in data set [6] (Table 1) was determined as 0.5 ng/mL. In addition, the “LoVo IC50” value in data set [6] (Table 2) stood at 0.6 ng/mL. Also, in [7], the “SKOV3 IC50” value turned out to be 2.8 ng/mL. Moreover, in data set [2] (25 μg/disk), the “Differential … Corbett Assay” value is reported as greater than 400 zone units and the “Type of Cytotoxicity, Corbett Assay” value is on record as “E/T”. Also, in [3] (setting [17]), the “% Body Wt. Loss at Nadir” value is -9%, the Cures was 0/5, the “Log Kill” value is less than 1 and the T/C turned out to be 54%.

In the case of `COc1ccc(C[C@H]2NC(=O)/C=C/C[C@@H]([C@H](C)[C@@H](O)[C@@H](Cl)c3ccccc3)OC(=O)[C@H](CC(C)C)OC(=O)[C@H](C)CNC2=O)cc1Cl` [Cryptophycin 8], the “KB IC50” value in [5] (Table 1) came out at 0.0002 ng/mL. For the same compound, the “KB IC50” value in data set [5] (Table 2) was determined as 0.01 ng/mL. The “LoVo IC50” value in [6] (Table 1) worked out at 0.01 ng/mL. For the same compound, the “LoVo IC50” value in data set [6] (Table 2) came to 0.0022 ng/mL. In addition, the “SKOV3 IC50” value in [7] is recorded as 0.15 ng/mL. In data set [2] (30 μg/disk), the “Differential … Corbett Assay” value is on record as greater than 500 zone units and the “Type of Cytotoxicity, Corbett Assay” value was “E/T”. Moreover, in [8] (setting [18]), the “% Body Wt. Loss at Nadir” value is given as -2%, the Cures is listed as 0/5 and the T/C is recorded as greater than 100%. In [8] (setting [19]), the “% Body Wt. Loss at Nadir” value is -2%, the Cures is reported as 1/5 and the T/C is 0%. Further, the “Log Kill” value in [8] (mouse, in vivo, 30 mg/kg) is given as 2.8. Besides, the “Log Kill” value in data set [8] (mouse, in vivo, 45 mg/kg) is recorded as “None”. Moreover, in data set [3] (setting [20]), the “% Body Wt. Loss at Nadir” value is given as -6%, the Cures is 0/5, the “Log Kill” value is listed as 4.6 and the T/C is 4%. Also, in data set [4], the “cures (in words)” value was “some cures”, the “gross log kill activity rating” value was “+++ to ++++”, the “in vivo activity (in words)” value was “active against a broad spectrum of tumors implanted in mice” and the “cause of lethal toxicity observed during testing” value was “leucopenia”. The “tumor burden T/C (mean tumor burden in treated animals/mean tumor burden untreated animals)” value in [4] is recorded as less than 10%. In addition, in data set [9] (setting [21]), the “% Body Wt. Loss at Nadir” value is given as -1%, the Cures is 0/5, the “Log Kill” value is 1.8 and the T/C is listed as 7%. Further, in [10] (setting [22]), the “% Body Wt. Loss at Nadir” value is on record as -4.5%, the Cures is recorded as 0/5, the “Log Kill” value was 2.5 and the T/C was 6%.
